Assay results taken from the Kinase Knowledgebase extract (Sharma et al. 2016).

What was measured:
[1] = molecular target: EGFR (Human), P00533 [T790M/L858R]; settings: h1975
[2] = molecular target: EGFR (Human), P00533 [Assessment of HCC827 (EGFR Del) Cell Proliferation]
[3] = molecular target: EGFR (human), P00533 [WT]; settings: a431
[4] = molecular target: EGFR (human), P00533 [WT]; settings: a549
[5] = molecular target: EGFR (human), P00533 [T790M]
[6] = molecular target: EGFR (Human), P00533 [T790M/L858R]
[7] = molecular target: EGFR (human), P00533 [L858R]

EGFR (Human), P00533 [T790M/L858R], sequence (P00533 whole entry T790M/L858R, looked up): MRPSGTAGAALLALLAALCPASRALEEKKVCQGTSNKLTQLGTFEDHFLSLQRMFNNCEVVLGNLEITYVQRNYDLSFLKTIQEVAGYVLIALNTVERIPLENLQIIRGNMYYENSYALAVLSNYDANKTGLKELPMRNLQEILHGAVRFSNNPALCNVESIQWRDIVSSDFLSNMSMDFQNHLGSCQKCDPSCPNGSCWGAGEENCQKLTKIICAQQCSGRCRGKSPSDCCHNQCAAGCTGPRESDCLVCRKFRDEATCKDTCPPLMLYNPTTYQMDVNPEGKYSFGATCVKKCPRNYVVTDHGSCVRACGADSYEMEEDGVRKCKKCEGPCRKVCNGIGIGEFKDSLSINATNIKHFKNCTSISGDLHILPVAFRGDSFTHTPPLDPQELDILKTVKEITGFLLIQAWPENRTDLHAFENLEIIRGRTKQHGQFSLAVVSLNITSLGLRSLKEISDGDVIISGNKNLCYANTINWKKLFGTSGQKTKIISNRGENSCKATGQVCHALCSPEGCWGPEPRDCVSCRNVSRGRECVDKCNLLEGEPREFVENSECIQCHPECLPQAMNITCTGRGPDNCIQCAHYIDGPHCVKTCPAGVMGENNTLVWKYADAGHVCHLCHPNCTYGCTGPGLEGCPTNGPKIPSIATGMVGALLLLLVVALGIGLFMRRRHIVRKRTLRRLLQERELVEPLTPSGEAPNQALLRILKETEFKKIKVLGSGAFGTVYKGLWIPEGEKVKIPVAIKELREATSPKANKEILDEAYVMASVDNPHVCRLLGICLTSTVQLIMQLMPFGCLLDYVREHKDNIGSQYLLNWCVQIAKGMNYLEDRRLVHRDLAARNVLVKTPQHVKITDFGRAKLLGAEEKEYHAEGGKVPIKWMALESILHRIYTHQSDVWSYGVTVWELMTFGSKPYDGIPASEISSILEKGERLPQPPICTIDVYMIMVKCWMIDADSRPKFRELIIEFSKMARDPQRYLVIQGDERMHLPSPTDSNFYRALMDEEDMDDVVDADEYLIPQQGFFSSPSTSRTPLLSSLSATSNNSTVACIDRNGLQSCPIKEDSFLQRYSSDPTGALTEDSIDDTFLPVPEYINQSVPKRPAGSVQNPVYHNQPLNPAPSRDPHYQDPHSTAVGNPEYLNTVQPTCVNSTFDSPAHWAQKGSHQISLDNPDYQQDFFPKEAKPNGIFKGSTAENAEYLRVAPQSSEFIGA
EGFR (human), P00533 [WT], sequence (P00533 whole entry, looked up): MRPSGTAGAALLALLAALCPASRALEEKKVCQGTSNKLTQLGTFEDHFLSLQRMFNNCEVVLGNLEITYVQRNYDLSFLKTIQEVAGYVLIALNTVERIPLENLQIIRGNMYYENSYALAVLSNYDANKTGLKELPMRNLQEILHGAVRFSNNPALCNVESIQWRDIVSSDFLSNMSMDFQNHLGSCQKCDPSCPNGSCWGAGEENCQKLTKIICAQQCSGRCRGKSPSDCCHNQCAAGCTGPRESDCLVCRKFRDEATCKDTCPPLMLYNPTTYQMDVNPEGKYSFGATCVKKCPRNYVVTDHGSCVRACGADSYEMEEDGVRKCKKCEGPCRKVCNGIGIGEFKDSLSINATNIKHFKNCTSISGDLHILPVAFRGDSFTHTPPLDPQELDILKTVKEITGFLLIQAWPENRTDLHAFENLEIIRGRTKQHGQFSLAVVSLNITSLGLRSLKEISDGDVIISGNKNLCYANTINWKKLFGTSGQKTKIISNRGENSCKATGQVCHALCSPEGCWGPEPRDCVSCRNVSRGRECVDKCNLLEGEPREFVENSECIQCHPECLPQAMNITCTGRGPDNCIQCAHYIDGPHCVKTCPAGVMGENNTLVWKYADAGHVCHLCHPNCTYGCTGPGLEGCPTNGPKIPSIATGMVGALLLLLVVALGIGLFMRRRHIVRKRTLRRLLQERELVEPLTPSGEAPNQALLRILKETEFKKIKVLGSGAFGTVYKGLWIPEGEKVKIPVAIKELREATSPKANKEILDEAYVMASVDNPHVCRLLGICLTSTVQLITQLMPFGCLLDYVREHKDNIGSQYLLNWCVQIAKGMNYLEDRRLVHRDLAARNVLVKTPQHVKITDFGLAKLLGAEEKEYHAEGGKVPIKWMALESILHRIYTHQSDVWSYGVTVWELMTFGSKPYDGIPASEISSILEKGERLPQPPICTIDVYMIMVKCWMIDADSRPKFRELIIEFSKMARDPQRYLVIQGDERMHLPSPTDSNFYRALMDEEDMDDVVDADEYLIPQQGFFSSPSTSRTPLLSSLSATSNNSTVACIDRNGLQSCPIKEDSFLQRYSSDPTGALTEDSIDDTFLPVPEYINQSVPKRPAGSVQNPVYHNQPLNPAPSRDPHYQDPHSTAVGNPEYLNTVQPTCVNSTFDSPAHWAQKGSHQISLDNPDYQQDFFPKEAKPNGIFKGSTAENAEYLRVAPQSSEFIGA
EGFR (Human), P00533 [Assessment of HCC827 (EGFR Del) Cell Proliferation], sequence (P00533 whole entry, looked up, stated change not applied): as the sequence (P00533 whole entry, looked up) above
EGFR (human), P00533 [T790M], sequence (P00533 whole entry T790M, looked up): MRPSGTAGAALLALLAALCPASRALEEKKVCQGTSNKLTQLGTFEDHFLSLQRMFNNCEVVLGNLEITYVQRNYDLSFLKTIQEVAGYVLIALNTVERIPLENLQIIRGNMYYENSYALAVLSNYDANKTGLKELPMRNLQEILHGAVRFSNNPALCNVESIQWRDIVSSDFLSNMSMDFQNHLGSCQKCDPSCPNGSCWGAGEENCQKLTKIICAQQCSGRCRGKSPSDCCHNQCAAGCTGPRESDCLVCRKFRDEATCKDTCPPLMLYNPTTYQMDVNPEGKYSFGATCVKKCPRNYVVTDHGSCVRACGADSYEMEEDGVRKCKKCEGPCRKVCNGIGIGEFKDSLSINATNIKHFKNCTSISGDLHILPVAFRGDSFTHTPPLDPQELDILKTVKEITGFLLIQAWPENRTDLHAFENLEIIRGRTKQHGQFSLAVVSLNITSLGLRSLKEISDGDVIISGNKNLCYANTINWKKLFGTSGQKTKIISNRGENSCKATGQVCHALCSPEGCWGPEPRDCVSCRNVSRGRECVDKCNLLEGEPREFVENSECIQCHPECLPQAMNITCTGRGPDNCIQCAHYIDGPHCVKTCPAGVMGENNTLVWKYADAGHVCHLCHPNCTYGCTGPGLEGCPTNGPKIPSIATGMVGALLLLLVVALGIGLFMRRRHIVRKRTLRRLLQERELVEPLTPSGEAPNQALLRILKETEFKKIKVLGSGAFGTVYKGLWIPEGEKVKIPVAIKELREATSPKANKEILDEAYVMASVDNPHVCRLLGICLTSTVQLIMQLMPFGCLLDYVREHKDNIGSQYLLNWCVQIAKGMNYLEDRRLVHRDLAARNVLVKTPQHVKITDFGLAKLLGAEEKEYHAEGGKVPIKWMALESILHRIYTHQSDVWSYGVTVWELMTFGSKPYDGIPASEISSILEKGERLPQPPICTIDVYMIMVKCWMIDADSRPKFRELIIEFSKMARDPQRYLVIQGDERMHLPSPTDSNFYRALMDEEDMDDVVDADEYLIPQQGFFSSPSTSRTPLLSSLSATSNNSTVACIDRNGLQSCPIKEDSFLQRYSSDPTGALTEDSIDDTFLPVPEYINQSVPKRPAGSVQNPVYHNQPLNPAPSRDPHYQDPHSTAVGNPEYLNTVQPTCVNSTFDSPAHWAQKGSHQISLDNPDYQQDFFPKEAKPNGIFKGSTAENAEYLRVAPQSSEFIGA

SMILES	IC50 [1]	IC50 [2]	IC50 [3]	IC50 [4]	IC50 [5]	IC50 [6]	IC50 [7]
COc1cc(N2CCC(N(C)C)CC2)ccc1Nc1ncc(Cl)c(Nc2ccccc2C(=O)C(=O)N(C)C)n1	860 nM	1230 nM	260 nM	–	–	–	–
C=CC(=O)Nc1cc(Nc2ncc(Cl)c(Nc3ccccc3C(=O)C(=O)NC)n2)c(F)cc1OC	650 nM	1200 nM	–	–	–	–	–
C=CC(=O)Nc1cccc(Nc2ncc(C(F)(F)F)c(Nc3ccccc3C(=O)C(N)=O)n2)c1	980 nM	530 nM	–	370 nM	–	–	–
COc1cc(N2CCC(N(C)C)CC2)ccc1Nc1ncc(Cl)c(Nc2ccccc2C(=O)C(=O)N2CCOCC2)n1	2860 nM	–	–	–	–	–	–
COc1cc(N2CCOCC2)ccc1Nc1ncc(Cl)c(Nc2ccccc2C(=O)C(=O)N(C)C)n1	1950 nM	1940 nM	–	–	–	–	–
CNC(=O)C(=O)c1ccccc1Nc1nc(Nc2ccc(N3CCC(N(C)C)CC3)cc2OC)ncc1Cl	1130 nM	900 nM	–	–	–	–	–
COc1cc(Nc2ncc(Cl)c(Nc3ccccc3C(=O)C(=O)N(C)C)n2)ccc1F	–	2330 nM	–	–	–	–	–
COc1cc(N2CCN(C)CC2)ccc1Nc1ncc(Cl)c(Nc2ccccc2C(=O)C(=O)N2CCOCC2)n1	1230 nM	2360 nM	–	–	–	–	–
COc1cc(N2CCN(C)CC2)ccc1Nc1ncc(Cl)c(Nc2ccccc2C(=O)C(=O)N(C)C)n1	810 nM	1630 nM	–	–	–	–	–
C/C=C/C(=O)Nc1ccc(OC)c(Nc2ncc(Cl)c(Nc3ccccc3C(=O)C(=O)N(C)C)n2)c1	310 nM	1050 nM	–	1370 nM	–	–	–
CNC(=O)C(=O)c1ccccc1Nc1nc(Nc2ccc(F)c(OC)c2)ncc1Cl	640 nM	–	–	–	–	–	–
COc1cc(N2CCC(N(C)C)CC2)ccc1Nc1ncc(Cl)c(Nc2ccccc2C(=O)C(N)=O)n1	–	2630 nM	–	–	7.52 nM	4.08 nM	44.3 nM
COc1cc(N2CCC(N(C)C)CC2)ccc1Nc1ncc(Cl)c(Nc2ccccc2C(=O)C(=O)NO)n1	840 nM	940 nM	–	–	–	–	–

Further lines, with some results ahead:

IC50 [1]	IC50 [2]	IC50 [3]	IC50 [4]	SMILES	IC50 [5]	IC50 [6]	IC50 [7]
310 nM	1200 nM	–	–	C=CC(=O)Nc1cc(Nc2ncc(Cl)c(Nc3ccccc3C(=O)C(=O)N(C)C)n2)c(F)cc1OC	–	–	–
10 nM	30 nM	100 nM	40 nM	C=C(CN1CCOCC1)C(=O)Nc1cccc(Nc2ncc(Cl)c(Nc3ccccc3C(=O)C(=O)N(C)C)n2)c1	–	–	–
210 nM	540 nM	50 nM	–	COc1cc(N2CCN(C(C)=O)CC2)ccc1Nc1ncc(Cl)c(Nc2ccccc2C(=O)C(=O)N(C)C)n1	–	–	–
190 nM	–	–	–	C=CC(=O)N1CCC(NC(=O)C(=O)c2ccccc2Nc2nc(Nc3ccc(F)c(OC)c3)ncc2Cl)CC1	–	–	–
90 nM	450 nM	–	–	C=CC(=O)Nc1cc(Nc2ncc(Cl)c(Nc3ccccc3C(=O)C(=O)NC)n2)ccc1OC	–	–	–
20 nM	20 nM	110 nM	1580 nM	C=CC(=O)Nc1ccc(OC)c(Nc2ncc(Cl)c(Nc3ccccc3C(=O)C(=O)N(C)C)n2)c1	–	–	–
10 nM	70 nM	–	640 nM	C=CC(=O)Nc1cccc(Nc2ncc(Cl)c(Nc3ccccc3C(=O)C(=O)N(C)C)n2)c1	–	–	–
10 nM	20 nM	10 nM	1890 nM	COc1cc(Nc2ncc(Cl)c(Nc3ccccc3C(=O)C(=O)N(C)C)n2)ccc1N1CCC(N(C)C)CC1	–	–	–
10 nM	50 nM	750 nM	–	C=CC(=O)Nc1ccc(OC)c(Nc2ncc(Cl)c(Nc3ccccc3C(=O)C(=O)N(CC)CC)n2)c1	–	–	–
150 nM	870 nM	–	2080 nM	CNC(=O)C(=O)c1ccccc1Nc1nc(Nc2ccc(N3CCN(C)CC3)c(OC)c2)ncc1Cl	–	–	–
10 nM	20 nM	210 nM	–	C=C(CN(C)CCN(C)C)C(=O)Nc1ccc(OC)c(Nc2ncc(Cl)c(Nc3ccccc3C(=O)C(=O)N(C)C)n2)c1	–	–	–
20 nM	120 nM	–	–	C=CC(=O)Nc1cc(Nc2ncc(Cl)c(Nc3ccccc3C(=O)C(=O)N(C)C)n2)ccc1OC	–	–	–
100 nM	270 nM	–	–	C=CC(=O)Nc1cccc(Nc2ncc(Cl)c(Nc3ccccc3C(=O)C(=O)NC)n2)c1	–	–	–
50 nM	30 nM	50 nM	620 nM	C=CC(=O)Nc1cc(Nc2ncc(Cl)c(Nc3ccccc3C(=O)C(=O)N(C)C)n2)c(OC)cc1N1CCN(C)CC1	–	–	–
50 nM	120 nM	–	–	C=CC(=O)Nc1cc(Nc2ncc(Cl)c(Nc3ccccc3C(=O)C(=O)N(C)C)n2)c(OC)cc1F	–	–	–
